Source: PMC7048192, “7-Acylamino-3H-1,2-benzoxathiepine 2,2-dioxides as new isoform-selective carbonic anhydrase IX and XII inhibitors” (Journal of Enzyme Inhibition and Medicinal Chemistry, 2020)

Legend:
Assay in all cases: stopped-flow CO2 hydrase assay
Assay type in all cases: biochemical
hCA II = biological target: T1, hCA II (Homo sapiens, UniProt P00918); details: read-out: KI (nM)^a,b / hCA I
T1 construct: gene CA2; recombinant, obtained in-house

hCA XII = biological target: T2, hCA XII (Homo sapiens, UniProt O43570); details: read-out: KI (nM)^a,b / hCA XII
T2 construct: gene CA12; recombinant, obtained in-house
T2 sequence (O43570 25-354): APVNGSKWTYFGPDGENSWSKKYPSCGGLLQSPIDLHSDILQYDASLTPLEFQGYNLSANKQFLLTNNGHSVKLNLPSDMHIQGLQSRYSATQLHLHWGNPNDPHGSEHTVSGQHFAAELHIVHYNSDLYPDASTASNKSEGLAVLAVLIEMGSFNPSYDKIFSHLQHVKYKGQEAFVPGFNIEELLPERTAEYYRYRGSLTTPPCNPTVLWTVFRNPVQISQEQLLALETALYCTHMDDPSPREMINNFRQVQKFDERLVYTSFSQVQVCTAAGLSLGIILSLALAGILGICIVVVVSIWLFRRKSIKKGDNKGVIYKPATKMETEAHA
Text: stopped-flow CO2 hydrase assay on hCA XII

hCA I = biological target: T3, hCA I (Homo sapiens, UniProt P00915); details: read-out: KI (nM)^a,b / hCA I
T3 construct: gene CA1; recombinant, obtained in-house
T3 sequence (P00915 2-261): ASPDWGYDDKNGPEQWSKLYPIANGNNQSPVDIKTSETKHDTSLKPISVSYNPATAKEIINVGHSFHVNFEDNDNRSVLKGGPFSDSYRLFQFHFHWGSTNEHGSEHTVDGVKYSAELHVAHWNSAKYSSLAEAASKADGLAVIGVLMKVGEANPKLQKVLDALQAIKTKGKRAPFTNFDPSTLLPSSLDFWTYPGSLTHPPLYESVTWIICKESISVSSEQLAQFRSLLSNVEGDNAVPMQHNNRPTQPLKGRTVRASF
Text: stopped-flow CO2 hydrase assay on hCA I

hCA IX = biological target: T4, hCA IX (Homo sapiens, UniProt Q16790); details: read-out: KI (nM)^a,b / hCA IX
T4 construct: gene CA9; recombinant, obtained in-house
Text: stopped-flow CO2 hydrase assay on hCA IX

Row | SMILES | Ki (hCA II) | Ki (hCA XII) | Ki (hCA I) | Ki (hCA IX)
1 | O=C(Nc1ccc2c(c1)C=CCS(=O)(=O)O2)c1ccc(Br)cc1 [compound 11, N-(2,2-Dioxido-3H-1,2-benzoxathiepin-7-yl)4-bromobenzamide] | > 100000 nM | 141 nM | > 100000 nM | 353 nM
2 | Cc1ccc(C(=O)Nc2ccc3c(c2)C=CCS(=O)(=O)O3)cc1 [compound 10, N-(2,2-Dioxido-3H-1,2-benzoxathiepin-7-yl)-4-methy benzamide] | > 100000 nM | 309 nM | > 100000 nM | 83 nM
3 | O=C(Nc1ccc2c(c1)C=CCS(=O)(=O)O2)c1cccs1 [compound 16, N-(2,2-Dioxido-3H-1,2-benzoxathiepin-7-yl)thiophene-2-carboxamide] | > 100000 nM | 73.2 nM | > 100000 nM | 178 nM
4 | O=C(Nc1ccc2c(c1)C=CCS(=O)(=O)O2)c1ccccc1 [compound 9, N-(2,2-Dioxido-3H-1,2-benzoxathiepin-7-yl)benzamide] | > 100000 nM | 370 nM | > 100000 nM | 209 nM

Next, values leading:

Row | Ki (hCA II) | Ki (hCA XII) | Ki (hCA I) | Ki (hCA IX) | SMILES
5 | > 100000 nM | 96.2 nM | > 100000 nM | 66.8 nM | O=C(Nc1ccc2c(c1)C=CCS(=O)(=O)O2)c1ccccc1Br [compound 13, N-(2,2-Dioxido-3H-1,2-benzoxathiepin-7-yl)-2-bromobenzamide]
6 | > 100000 nM | 8.7 nM | > 100000 nM | 19.7 nM | O=C(Nc1ccc2c(c1)C=CCS(=O)(=O)O2)c1ccccc1C(F)(F)F [compound 15, N-(2,2-Dioxido-3H-1,2-benzoxathiepin-7-yl)-2-(trifluoromethyl)benzamide]
7 | > 100000 nM | 162 nM | > 100000 nM | 61.8 nM | CC(=O)Nc1ccc2c(c1)C=CCS(=O)(=O)O2 [compound 8, N-(2,2-Dioxido-3H-1,2-benzoxathiepin-7-yl)acetamide]
8 | > 100000 nM | 134 nM | > 100000 nM | 210 nM | O=C(Nc1ccc2c(c1)C=CCS(=O)(=O)O2)c1ccco1 [compound 17, N-(2,2-Dioxido-3H-1,2-benzoxathiepin-7-yl)furan-2-carboxamide]
9 | > 100000 nM | 644 nM | > 100000 nM | 45.4 nM | O=C(Nc1ccc2c(c1)C=CCS(=O)(=O)O2)c1ccccc1I [compound 12, N-(2,2-Dioxido-3H-1,2-benzoxathiepin-7-yl)-2-iodobenzamide]
10 | > 100000 nM | 40.3 nM | > 100000 nM | 74.6 nM | O=C(Nc1ccc2c(c1)C=CCS(=O)(=O)O2)c1ccccc1F [compound 14, N-(2,2-Dioxido-3H-1,2-benzoxathiepin-7-yl)-2-fluorobenzamide]
